Reference: ChEMBL document CHEMBL1201862, “PubChem BioAssay data set” (2004)
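Protocol summary: plate cells (96-well), add compound at 5 concentrations, incubate 48 h, interpolate endpoints linearly. GI50 = concentration required for 50% inhibition of growth.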 The source made the active and inactive calls. Cut-off read from the data, not from the text of the source: active = GI50 up to about 1.1 µM and inactive = higher.

What was measured:
Test in all cases: DTP human tumour cell line panel, 48 h
[1] = system: 786-0
[2] = system: A549
[3] = system: CAKI-1
[4] = system: HT-29
[5] = system: IGROV-1
[6] = system: K562
[7] = system: MDA-N
[8] = system: Malme-3M
[9] = system: NCI-H23
[10] = system: NCI/ADR-RES
[11] = system: RPMI-8226
[12] = system: RXF 393
[13] = system: SF-295
[14] = system: SK-MEL-2
[15] = system: SK-MEL-5
[16] = system: TK-10
[17] = system: UACC-62
[18] = system: ACHN
[19] = system: HCC 2998
[20] = system: HOP-92

SMILES | GI50 [1] | GI50 [2] | GI50 [3] | GI50 [4] | GI50 [5] | GI50 [6] | GI50 [7] | GI50 [8] | GI50 [9] | GI50 [10] | GI50 [11] | GI50 [12] | GI50 [13] | GI50 [14] | GI50 [15] | GI50 [16] | GI50 [17] | GI50 [18] | GI50 [19] | GI50 [20]
COc1ccccc1Cn1c2c(c3cc(O)ccc31)C(=O)c1ccccc1C2=O | 13.3 µM (inactive) | 19.5 µM (inactive) | 16.7 µM (inactive) | > 100 µM (inactive) | 16.6 µM (inactive) | > 100 µM (inactive) | > 100 µM (inactive) | > 100 µM (inactive) | 20 µM (inactive) | 11.3 µM (inactive) | 15.3 µM (inactive) | 2.6 µM (inactive) | 11.2 µM (inactive) | 38.6 µM (inactive) | 37.2 µM (inactive) | 72.8 µM (inactive) | 17 µM (inactive) | – | – | –
CC1(Cc2cc3c(cc2C2(c4ccc([N+](=O)[O-])cc4)OCCO2)OCO3)OCCO1 | > 100 µM (inactive) | 43.8 µM (inactive) | 63.5 µM (inactive) | > 100 µM (inactive) | 51.1 µM (inactive) | 61.9 µM (inactive) | > 100 µM (inactive) | > 100 µM (inactive) | 55.2 µM (inactive) | 87.9 µM (inactive) | 27.3 µM (inactive) | 86.1 µM (inactive) | > 100 µM (inactive) | 68.4 µM (inactive) | 41.7 µM (inactive) | > 100 µM (inactive) | 36 µM (inactive) | 93.3 µM (inactive) | > 100 µM (inactive) | –
COc1cc([N+](=O)[O-])c(OC)c2c(Nc3ccc(S(=O)(=O)O)c4cc(S(=O)(=O)O)cc(S(=O)(=O)O)c34)cc(C)nc12 | > 100 µM (inactive) | > 100 µM (inactive) | > 100 µM (inactive) | > 100 µM (inactive) | > 100 µM (inactive) | – | > 100 µM (inactive) | > 100 µM (inactive) | > 100 µM (inactive) | > 100 µM (inactive) | – | > 100 µM (inactive) | – | > 100 µM (inactive) | > 100 µM (inactive) | > 100 µM (inactive) | > 100 µM (inactive) | – | – | –
NNC(=O)c1nnn(N)c1S | 93.8 µM (inactive) | > 100 µM (inactive) | 84.5 µM (inactive) | > 100 µM (inactive) | > 100 µM (inactive) | 36.8 µM (inactive) | > 100 µM (inactive) | > 100 µM (inactive) | > 100 µM (inactive) | > 100 µM (inactive) | > 100 µM (inactive) | > 100 µM (inactive) | > 100 µM (inactive) | > 100 µM (inactive) | > 100 µM (inactive) | > 100 µM (inactive) | > 100 µM (inactive) | > 100 µM (inactive) | > 100 µM (inactive) | –
CSC(SC)=C1C(=O)NN=C1C | > 100 µM (inactive) | > 100 µM (inactive) | 89.3 µM (inactive) | > 100 µM (inactive) | > 100 µM (inactive) | > 100 µM (inactive) | > 100 µM (inactive) | > 100 µM (inactive) | > 100 µM (inactive) | – | > 100 µM (inactive) | > 100 µM (inactive) | > 100 µM (inactive) | > 100 µM (inactive) | > 100 µM (inactive) | > 100 µM (inactive) | > 100 µM (inactive) | > 100 µM (inactive) | > 100 µM (inactive) | 35.1 µM (inactive)
Cc1ccc2c(=O)c(C(=O)NNC(=S)NC3CCCCC3)c[nH]c2n1 | > 100 µM (inactive) | > 100 µM (inactive) | 59.2 µM (inactive) | 53.1 µM (inactive) | 35.6 µM (inactive) | 30.6 µM (inactive) | 31.6 µM (inactive) | 65.8 µM (inactive) | 94.8 µM (inactive) | > 100 µM (inactive) | 42.8 µM (inactive) | > 100 µM (inactive) | 56.8 µM (inactive) | 65.9 µM (inactive) | 33.7 µM (inactive) | > 100 µM (inactive) | 62.4 µM (inactive) | 96.4 µM (inactive) | – | –
NC(Cc1ccc(B(O)O)cc1)C(=O)NC(CO)CO (stereo not drawn) | > 100 µM (inactive) | > 100 µM (inactive) | > 100 µM (inactive) | > 100 µM (inactive) | > 100 µM (inactive) | > 100 µM (inactive) | > 100 µM (inactive) | > 100 µM (inactive) | > 100 µM (inactive) | > 100 µM (inactive) | > 100 µM (inactive) | 67.6 µM (inactive) | > 100 µM (inactive) | > 100 µM (inactive) | > 100 µM (inactive) | > 100 µM (inactive) | > 100 µM (inactive) | > 100 µM (inactive) | > 100 µM (inactive) | –
C=C1C[C@H]2C=Nc3cc(OCCCOc4cc5c(cc4OC)C(=O)N4CC(=C)C[C@H]4C=N5)c(OC)cc3C(=O)N2C1 [SJG-136] | < 0.01 µM (active) | 0.0157 µM (active) | < 0.01 µM (active) | 0.0147 µM (active) | < 0.01 µM (active) | < 0.01 µM (active) | 0.0143 µM (active) | 0.0109 µM (active) | 0.00166 µM (active) | – | 0.0121 µM (active) | < 0.0107 µM (active) | < 0.01 µM (active) | – | < 0.01 µM (active) | 0.0316 µM (active) | < 0.01 µM (active) | < 0.01 µM (active) | 0.0126 µM (active) | 0.00682 µM (active)
Cc1cc2c(c(S(=O)(=O)c3ccccc3[N+](=O)[O-])c1)NCCC2 | > 100 µM (inactive) | 40.3 µM (inactive) | – | > 100 µM (inactive) | 95.7 µM (inactive) | – | 34.8 µM (inactive) | 44.8 µM (inactive) | 59.7 µM (inactive) | 50 µM (inactive) | 85.3 µM (inactive) | > 100 µM (inactive) | 55.6 µM (inactive) | 51.4 µM (inactive) | 18.7 µM (inactive) | > 100 µM (inactive) | 17.8 µM (inactive) | 28.9 µM (inactive) | 91.2 µM (inactive) | –
NNC(=O)Cn1c2ccc(Br)cc2c2nc3ccccc3nc21 | 17.9 µM (inactive) | 94.8 µM (inactive) | > 100 µM (inactive) | > 100 µM (inactive) | 31 µM (inactive) | 33.8 µM (inactive) | > 100 µM (inactive) | – | 20.4 µM (inactive) | > 100 µM (inactive) | > 100 µM (inactive) | 23.2 µM (inactive) | 21.8 µM (inactive) | 19.1 µM (inactive) | > 100 µM (inactive) | 56 µM (inactive) | 56.5 µM (inactive) | 36.6 µM (inactive) | – | –
COC(=O)CCCC(=O)NC1=C(NCc2ccccc2)C(=O)c2ccccc2C1=O | 63.8 µM (inactive) | 56.5 µM (inactive) | > 100 µM (inactive) | – | 44.2 µM (inactive) | 45.6 µM (inactive) | 41.4 µM (inactive) | 15.5 µM (inactive) | 53.2 µM (inactive) | 27.3 µM (inactive) | 49.5 µM (inactive) | – | > 10 µM (inactive) | 87.5 µM (inactive) | – | > 100 µM (inactive) | 29.2 µM (inactive) | 73.8 µM (inactive) | > 100 µM (inactive) | –
